# From patent EP1169044B1, “USE OF FUCOSYLATED SIALYLATED N-ACETYL LACTOSAMINE CARBOHYDRATE STRUCTURES FOR INHIBITION OF BACTERIAL ADHERENCE” (Borén, Thomas, priority 1999, dated 2000)
# pKd: −log10 of the molar value.
# Key:
# Type in all cases: binding, Helicobacter pylori
# [1] = tested on: 91 Swedish clinical H. pylori isolates; conditions: out of 91 clinical isolates
# Procedure: Bacteria were grown at 37°C in 10 % CO2 and 5% O2 (T. Borén, P. Falk, K. A. Roth, G. Larson, and S. Normark, Science.. 262, 1892(1993), for 2 days for optimal Le b antigen binding activity.
# H. pylori strains = experiment: radio immuno analysis (RIA) with 125I-labelled neoglycoconjugates; conditions: strains of Fig. 4 (BabA2 mutant, babA1A2 mutant, CCUG 17875, CCUG 17874), 400 ng conjugate, 30 min
# Procedure: Bars, from the left to the right; The sialyl-alfa2.61actose-, sialyl-alfa2.31actose-, sialyl-Lewis a-, sialyl-Lewis x-, and Lewis b-, synthesised sialyl-Lewis x- sialyl-acetyllactosaminee, both with a either a 3 carbon or 14 carbon (extended/hydrophilic) spacer, conjugated to albumin, Finally, the histo-blood group antigen Lewis y (synthesised penta-saccharide) (V. Behar and S.J. Danishefsky, Angew. Chem. Int. Ed. Engi, 1994, 33, no. 14, 1468.), was analysed as a neo-glycoconjugate.
# (§1) The sialyl-alfa2.3lactose-, sialyl-alfa2.61actose-, sialyl-Lewis a-, and Lewis b-oligosaccharide antigens used for neoglycoconjugate preparations were purified by HPLC, structurally identified and characterized with NMR-spectroscopy, and more than 95% pure. These conjugates were attached to albumin with an APD (acetylphenylenediamine) spacer attached to the carbohydrate by reductive animation and thus the terminal reducing monosaccharide unit of the oligosaccharide is reduced and is present as an aminoalditol, IsoSep AB, Tullinge, Sweden (T. Borén, P. Falk, K. A. Roth, G. Larson, and S. Normark, Science. 262, 1892 (1993), P. D. Rye, Nature Biotechnology 2, 155 (1996)). The synthesised sialyl-Lewis x- tetrasaccharide antigen was conjugated to albumin with the MPE (mercaptopropionyl-amidoethyl) -spacer, IsoSep AB. Synthesised sialyl-Lewis x-tetrasaccharide and sialyl-acetyllactosaminee, both with a either a 3 carbon or 14 carbon (extended/hydrophilic) spacer, conjugated to albumin, were obtained from Dextra Laboratories, Reading, UK. The RIA (Fig. 4) was performed according to (P. Falk, T. Borén, D. Haslam, M. G. Caparon, Meth. Cell Biol. 45, 161 (1994)) with minor modifications; the glycoconjugates were ^125I-labelled by the Chloramine T method. 1 ml of bacteria (A600= OD 0.10) was incubated with 400 ng of ^125I-labelled conjugate (that is an excess of receptor substrate) for 30 min. in phosphate buffered saline (PBS), 0.5 % albumin, 0.05 % Tween-20 (BB-buffer). After centrifugation, the ^125I-activity bound to the bacterial pellet was measured by gamma scintillation counting. Binding experiments were reproducible and performed in triplets. In addition, the level of binding-activity within the strain was stabile.
# babA1A2-mutant = experiment: Scatchard affinity analysis with sialylated conjugates
# Description: as §1, with “1 ml of bacteria (A600= OD 0.10) was incubated with 400 ng of ^125I-labelled conjugate (that is an excess of receptor substrate) for 30 min. in phosphate buffered saline (PBS), 0.5 % albumin, 0.05 % Tween-20 (BB-buffer).” left out, “Binding experiments were reproducible and performed in triplets. In addition, the level of binding-activity within the strain was stabile.” left out
# [2] = tested on: CCUG 17875 and the babA1A2 double mutant; experiment: H. pylori adherence to immobilized neoglycoconjugates in ELISA; conditions: strain not specified (CCUG 17875 and babA1A2 double mutant tested)
# Procedure: CCUG 17875 (75) and the babA1A2 double mutant (DM) were added to the ELISA in a series labelled A-F. Adherent bacteria were detected by polyclonal rabbit antisera against H. pylori CCUG 17875. The products of the horseradish peroxidase reaction were quantified in a microtiter plate reader.
# Sialyl-Lewis a-PAA, sialyl-Lewis x-PAA, 3'-HSO3-Lewis a-PAA, and 3'-HSO3-Lewis x-PAA, i.e. synthesised sialylated or sulphated Lewis antigens conjugated to polyacrylamide backbone were obtained from Syntesome GmbH, Munchen, Germany. The conjugates were added in dilution series of 1µg, 100ng, and 10 ng, in 90µl 1% BSA PBS 0.05% Tween, to streptavidin coated microtiter (ELISA) plates (Roche Diagnostics Scandinavia AB, Bromma, Sweden). After one hour of incubation in room temperature, the plate was blocked over night at 4°C, with 500ng biotinylated albumin in 300µl 1% BSA PBS 0.005% Tween. […] Adherent bacteria were detected by polyclonal rabbit antisera at a dilution of 1:3000, raised against formalin fixed bacteria of strain CCUG 17875 in New Zealand rabbits (Agrisera AB, Vännäsby, Sweden) The antibodies were allowed to incubate in 1% BSA in PBS 0.05% Tween for 30 minutes at room temperature. […] The products of the horseradish peroxidase reaction were quantified in a microtiter plate reader at 490 nm.
molecule,measurement,setting,value
"CC(=O)NC1C(OC2C(O)C(O)OC(CO)C2O)OC(CO)C(OC2OC(CO)C(O)C(O)C2OC2OC(C)C(O)C(O)C2O)C1OC1OC(C)C(O)C(O)C1O (stereo not drawn) [Lewis y penta-saccharide antigen, Fucα2Galβ4GlcNAcβ3Gal 3 Fucα1]",number of isolates that bound the neoglycoconjugate antigen,[1],None
same,binding of 125I-labelled neoglycoconjugate (in words),H. pylori strains,did not demonstrate any binding activity
same,binding of 125I-labelled neoglycoconjugate (in words),H. pylori strains; listed as Lewis y pentasacharide antigen,did not detect any binding activity
"CC(=O)N[C@H]1[C@H]([C@H](O)[C@H](O)CO)O[C@@](O[C@H]2[C@@H](O)[C@@H](CO)O[C@@H](O[C@H]3[C@H](O)[C@@H](O)C(O)O[C@@H]3CO)[C@@H]2O)(C(=O)O)C[C@@H]1O (stereo partly drawn) [sialyl-alfa2.31actose antigen, Neu5Acα3Galβ4Glc]",binding of 125I-labelled neoglycoconjugate (in words),H. pylori strains,Poor binding
same,fold lower affinity,babA1A2-mutant; compared with the fucosylated sialyl-Lewis x structures,20 fold
same,pKd,babA1A2-mutant; read-out: affinity according to Scatchard,7.00
"CC(=O)NC1C(O)CC(OCC2OC(OC3C(CO)OC(O)C(O)C3O)C(O)C(O)C2O)(C(=O)O)OC1C(O)C(O)CO (stereo not drawn) [sialyl-alfa2.61actose antigen, Neu5Acα6Galβ4Glc]",binding of 125I-labelled neoglycoconjugate (in words),H. pylori strains,Poor binding
same,binding of 125I-labelled neoglycoconjugate (in words),"H. pylori strains; listed as sialyl-alfa 2,6 lactose conjugate",did not demonstrate any binding activity
HSO3-3Galβ3GlcNAcβ3Galβ4Glc 4 Fucα1 [3'HSO3Lewis a],binding to immobilised antigen in ELISA (in words),[2],no binding above background
HSO3-3Galβ4GlcNAcβ3Galβ4Glc 3 Fucα1 [3'HSO3Lewis x],binding to immobilised antigen in ELISA (in words),[2],no binding above background
Neu5Acα3Galβ4GlcNAc [alfa2.31actoseamine with a 14 carbon spacer],binding of 125I-labelled neoglycoconjugate (in words),H. pylori strains,rather efficient binding
"Neu5Acα3Galβ4GlcNAc [equivalent structure linked by a shorter, 3 carbon spacer]",binding of 125I-labelled neoglycoconjugate (in words),H. pylori strains,much reduced in binding
